Measurements from the CheMixHub viscosity set.
± gives the uncertainty stated by the source.

Test: xn = mol fraction of the nth substance listed

CCCCCCCCCCCCCCCC + C1CCCCC1
viscosity [mPa·s]
Conditions	298.15 K	323.15 K
100 kPa, x2 = 0.2	2.654 ± 0.11	1.632 ± 0.067
100 kPa, x2 = 0.4	2.239 ± 0.091	1.399 ± 0.057
100 kPa, x2 = 0.6	1.79 ± 0.072	1.154 ± 0.047
100 kPa, x2 = 0.8	1.326 ± 0.053	0.8848 ± 0.036
101.33 kPa, x1 = 0.0129	0.9348 ± 0.0079	–
101.33 kPa, x2 = 0.1809	2.717 ± 0.021	–
101.33 kPa, x2 = 0.3339	2.395 ± 0.018	–
101.33 kPa, x2 = 0.458	2.126 ± 0.017	–
101.33 kPa, x2 = 0.557	1.892 ± 0.015	–
101.33 kPa, x2 = 0.6415	1.709 ± 0.014	–
101.33 kPa, x2 = 0.7087	1.549 ± 0.012	–
101.33 kPa, x2 = 0.7738	1.39 ± 0.011	–
101.33 kPa, x2 = 0.828	1.27 ± 0.01	–
101.33 kPa, x2 = 0.8753	1.169 ± 0.0096	–
101.33 kPa, x2 = 0.9197	1.08 ± 0.0089	–
101.33 kPa, x2 = 0.9513	1.008 ± 0.0084	–

ClC(Cl)Cl + C1CCCCC1
298.15 K, 101 kPa
Conditions	viscosity [mPa·s]
x1 = 0.2026	0.7795 ± 0.0098
x1 = 0.3543	0.6917 ± 0.0087
x1 = 0.4317	0.665 ± 0.0083
x1 = 0.5593	0.6217 ± 0.0078
x1 = 0.6464	0.6057 ± 0.0076
x1 = 0.7738	0.5875 ± 0.0074
x1 = 0.886	0.5657 ± 0.0071

ClC(Cl)Cl + C1COCCO1
Conditions	viscosity [mPa·s]
293.15 K, 101.33 kPa, x1 = 0.152	1.199 ± 0.031
293.15 K, 101.33 kPa, x1 = 0.2726	1.129 ± 0.029
293.15 K, 101.33 kPa, x1 = 0.3876	1.063 ± 0.028
293.15 K, 101.33 kPa, x1 = 0.4413	1.035 ± 0.027
293.15 K, 101.33 kPa, x1 = 0.516	0.992 ± 0.026
293.15 K, 101.33 kPa, x1 = 0.6385	0.919 ± 0.024
293.15 K, 101.33 kPa, x1 = 0.7409	0.819 ± 0.021
293.15 K, 101.33 kPa, x1 = 0.8856	0.677 ± 0.018
298.15 K, 101 kPa, x1 = 0.2	1.08 ± 0.012
298.15 K, 101 kPa, x1 = 0.4	0.981 ± 0.012
298.15 K, 101 kPa, x1 = 0.6	0.865 ± 0.011
298.15 K, 101 kPa, x1 = 0.8	0.703 ± 0.011
298.15 K, 101.33 kPa, x1 = 0.152	1.073 ± 0.028
298.15 K, 101.33 kPa, x1 = 0.2726	1.018 ± 0.026
298.15 K, 101.33 kPa, x1 = 0.3876	0.964 ± 0.025
298.15 K, 101.33 kPa, x1 = 0.4413	0.952 ± 0.025
298.15 K, 101.33 kPa, x1 = 0.516	0.905 ± 0.023
298.15 K, 101.33 kPa, x1 = 0.6385	0.837 ± 0.022
298.15 K, 101.33 kPa, x1 = 0.7409	0.774 ± 0.02
298.15 K, 101.33 kPa, x1 = 0.8856	0.658 ± 0.017
303.15 K, 101 kPa, x2 = 0.0995	0.59 ± 0.006
303.15 K, 101 kPa, x2 = 0.1981	0.672 ± 0.007
303.15 K, 101 kPa, x2 = 0.2998	0.75 ± 0.007
303.15 K, 101 kPa, x2 = 0.3953	0.801 ± 0.008
303.15 K, 101 kPa, x2 = 0.4992	0.857 ± 0.008
303.15 K, 101 kPa, x2 = 0.5971	0.91 ± 0.009
303.15 K, 101 kPa, x2 = 0.6993	0.956 ± 0.009
303.15 K, 101 kPa, x2 = 0.8015	0.997 ± 0.01
303.15 K, 101 kPa, x2 = 0.9021	1.044 ± 0.01
303.15 K, 101.33 kPa, x1 = 0.2137	1.007 ± 0.026
303.15 K, 101.33 kPa, x1 = 0.3447	0.949 ± 0.024
303.15 K, 101.33 kPa, x1 = 0.4212	0.934 ± 0.024
303.15 K, 101.33 kPa, x1 = 0.4813	0.886 ± 0.023
303.15 K, 101.33 kPa, x1 = 0.5194	0.879 ± 0.023
303.15 K, 101.33 kPa, x1 = 0.5698	0.844 ± 0.022
303.15 K, 101.33 kPa, x1 = 0.7088	0.752 ± 0.019

ClC(Cl)Cl + CC1COC(=O)O1
303.15 K, 101.3 kPa
Conditions	viscosity [mPa·s]
x2 = 0.0961	0.5649 ± 0.01
x2 = 0.1929	0.6358 ± 0.011
x2 = 0.2906	0.7195 ± 0.013
x2 = 0.3894	0.8171 ± 0.014
x2 = 0.4887	0.9421 ± 0.016
x2 = 0.5894	1.098 ± 0.018
x2 = 0.6906	1.287 ± 0.021
x2 = 0.7925	1.52 ± 0.025
x2 = 0.8962	1.808 ± 0.029

O=C(O)CCl + CC(C)=O
viscosity [mPa·s], 101 kPa
Conditions	x1 = 0.1359	x1 = 0.1855	x1 = 0.2889	x1 = 0.3789	x1 = 0.4791	x1 = 0.6971	x1 = 0.8145
298.15 K	0.4351 ± 0.012	0.5339 ± 0.014	0.7329 ± 0.019	0.9727 ± 0.026	1.345 ± 0.036	–	–
308.15 K	0.394 ± 0.011	0.4777 ± 0.013	0.6435 ± 0.017	0.8439 ± 0.022	1.131 ± 0.03	2.166 ± 0.057	–
323.15 K	0.3409 ± 0.0092	0.4134 ± 0.011	0.5393 ± 0.014	0.6876 ± 0.018	0.9042 ± 0.024	1.6 ± 0.042	2.123 ± 0.056

O=CC(Cl)(Cl)Cl + CC(C)=O
viscosity [mPa·s], 101 kPa
Conditions	x1 = 0.0713	x1 = 0.1371	x1 = 0.2697	x1 = 0.3708	x1 = 0.4723	x1 = 0.5664	x1 = 0.6561	x1 = 0.7731	x1 = 0.8964
298.15 K	0.4048 ± 0.0044	0.4541 ± 0.0048	0.5494 ± 0.0074	0.6015 ± 0.0062	0.6699 ± 0.0068	0.7342 ± 0.0073	0.7924 ± 0.0079	0.8894 ± 0.0087	0.9679 ± 0.0095
308.15 K	0.3678 ± 0.0041	0.4111 ± 0.0045	–	0.5376 ± 0.0056	0.5949 ± 0.0061	0.6484 ± 0.0066	0.7021 ± 0.007	0.7778 ± 0.0077	0.8506 ± 0.0084
323.15 K	0.3231 ± 0.0037	0.3615 ± 0.004	0.4176 ± 0.0066	0.4606 ± 0.0049	0.5118 ± 0.0054	0.554 ± 0.0057	0.6001 ± 0.0061	0.6568 ± 0.0067	0.7107 ± 0.0072
